Values quoted from earlier work in patent US20020054924A1, “Novel compositions derived from cranberry and grapefruit and therapeutic uses therefor” (priority 2000, published 2002).

Tested on: cholesterol
Conditions: chickens

tocotrienol [Extract T3]
hypocholesterolemic effect compared with Lovastatin: twice as effective as Lovastatin™
